Values quoted from earlier work as cited in US20230285259A1, “METHOD FOR DYEING KERATINOUS MATERIAL, COMPRISING THE USE OF AN ORGANOSILICON COMPOUND, A DERIVATIVE OF ALKYLATED SILANOL, A COLORING COMPOUND AND A POST-TREATMENT AGENT” (Henkel AG & Co. KGaA, priority 2020, published 2023).

Settings: 25° C.

SMILES | solubility in water | solubility in water (in words)
CCN(Cc1cccc(S(=O)(=O)O)c1)c1ccc(C(=C2C=CC(=[N+](CC)Cc3cccc(S(=O)(=O)O)c3)C=C2)c2ccccc2S(=O)(=O)[O-])cc1 [Acid Blue 9] | more than 20 wt. % | 
O=S(=O)(O)c1ccc(N=Nc2c(O)ccc3ccccc23)cc1 [Acid Orange 7, 4-[(2-hydroxy-1-naphthyl)azo]benzene sulphonate] | more than 7 g/L | 
O=[N+]([O-])c1cc([N+](=O)[O-])c2ccc(S(=O)(=O)O)cc2c1O [Acid Yellow 9, 8-hydroxy-5,7-dinitro-2-naphthalenesulfonic acid] | above 40 g/L | 
O=C(O)C1=NN(c2ccc(S(=O)(=O)O)cc2)C(=O)C1N=Nc1ccc(S(=O)(=O)O)cc1 (stereo not shown) [Acid Yellow 23, 4,5-dihydro-5-oxo-1-(4-sulfophenyl)-4-((4-sulfophenyl)azo)-1H-pyrazole-3-carboxylic acid] |  | highly soluble
